The supplement of paper PMC10307832

What was measured:
Assay in all cases: relative viability (nuclei count vs DMSO), 5 days (fraction); higher = more cells survive
[1] = system: NCI-H3122
Method in brief: (§1)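 Lung cancer cell lines in 1536-well plates were dosed by pin tool the day after seeding, either with one drug alone or with a fixed anchor-drug dose plus five library-drug doses (not always all listed) in √10 steps. After 5 days, cells were fixed and their nuclei stained in one step (final 0.05% Triton X-100, 1% formaldehyde, 1 ug/ml Hoechst), then counted on 4× images. Relative viability is the nuclei count in treated wells divided by that in vehicle wells. Values are medians of duplicate plates.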

[2] = system: PC-14
Method in brief: as §1

[3] = system: NCI-H1355
Method in brief: as §1

[4] = system: NCI-H441
Method in brief: as §1

[5] = system: NCI-H520
Method in brief: as §1

[6] = system: NCI-H727
Method in brief: as §1

[7] = system: NCI-H322M
Method in brief: as §1

[8] = system: NCI-H596
Method in brief: as §1

[9] = system: NCI-H1792
Method in brief: as §1

[10] = system: NCI-H661
Method in brief: as §1

[11] = system: NCI-H1755
Method in brief: as §1

[12] = system: NCI-H1915
Method in brief: as §1

[13] = system: SK-MES-1
Method in brief: as §1

[14] = system: LCLC-103H
Method in brief: as §1

[15] = system: NCI-H2347
Method in brief: as §1

[16] = system: NCI-H1651
Method in brief: as §1

[17] = system: LXF-289
Method in brief: as §1

[18] = system: NCI-H460
Method in brief: as §1

[19] = system: RERF-LC-KJ
Method in brief: as §1

[20] = system: NCI-H1563
Method in brief: as §1

## CCN(CC)CCCCNc1ncc2cc(-c3cc(OC)cc(OC)c3)c(NC(=O)NC(C)(C)C)nc2n1 + CS(=O)(=O)N1CCN(Cc2cc3nc(-c4cccc5[nH]ncc45)nc(N4CCOCC4)c3s2)CC1 [Pictilisib] (partner 1 µM)
[1]; first compound 0.01 µM
  relative viability: 0.618
[1]; first compound 0.03162 µM
  relative viability: 0.598
[1]; first compound 0.1 µM
  relative viability: 0.674
[1]; first compound 0.3162 µM
  relative viability: 0.64
[1]; first compound 1 µM
  relative viability: 0.592
[2]; first compound 0.01 µM
  relative viability: 0.702
[2]; first compound 0.03162 µM
  relative viability: 0.624
[2]; first compound 0.1 µM
  relative viability: 0.658
[2]; first compound 0.3162 µM
  relative viability: 0.807
[2]; first compound 1 µM
  relative viability: 0.509
[3]; first compound 0.01 µM
  relative viability: 0.327
[3]; first compound 0.03162 µM
  relative viability: 0.375
[3]; first compound 0.1 µM
  relative viability: 0.478
[3]; first compound 0.3162 µM
  relative viability: 0.569
[3]; first compound 1 µM
  relative viability: 0.461
[4]; first compound 0.01 µM
  relative viability: 0.48
[4]; first compound 0.03162 µM
  relative viability: 0.554
[4]; first compound 0.1 µM
  relative viability: 0.412
[4]; first compound 0.3162 µM
  relative viability: 0.53
[4]; first compound 1 µM
  relative viability: 0.407
[5]; first compound 0.01 µM
  relative viability: 0.292
[5]; first compound 0.03162 µM
  relative viability: 0.301
[5]; first compound 0.1 µM
  relative viability: 0.264
[5]; first compound 0.3162 µM
  relative viability: 0.225
[5]; first compound 1 µM
  relative viability: 0.146
[6]; first compound 0.01 µM
  relative viability: 0.413
[6]; first compound 0.03162 µM
  relative viability: 0.417
[6]; first compound 0.1 µM
  relative viability: 0.362
[6]; first compound 0.3162 µM
  relative viability: 0.627
[6]; first compound 1 µM
  relative viability: 0.41
[7]; first compound 0.01 µM
  relative viability: 0.573
[7]; first compound 0.03162 µM
  relative viability: 0.47
[7]; first compound 0.1 µM
  relative viability: 0.499
[7]; first compound 0.3162 µM
  relative viability: 0.566
[7]; first compound 1 µM
  relative viability: 0.456
[8]; first compound 0.01 µM
  relative viability: 0.422
[8]; first compound 0.03162 µM
  relative viability: 0.418
[8]; first compound 0.1 µM
  relative viability: 0.369
[8]; first compound 0.3162 µM
  relative viability: 0.378
[8]; first compound 1 µM
  relative viability: 0.35
[9]; first compound 0.01 µM
  relative viability: 0.249
[9]; first compound 0.03162 µM
  relative viability: 0.282
[9]; first compound 0.1 µM
  relative viability: 0.241
[9]; first compound 0.3162 µM
  relative viability: 0.265
[9]; first compound 1 µM
  relative viability: 0.225
[10]; first compound 0.01 µM
  relative viability: 0.403
[10]; first compound 0.03162 µM
  relative viability: 0.313
[10]; first compound 0.1 µM
  relative viability: 0.434
[10]; first compound 0.3162 µM
  relative viability: 0.445
[10]; first compound 1 µM
  relative viability: 0.344
[11]; first compound 0.01 µM
  relative viability: 0.403
[11]; first compound 0.03162 µM
  relative viability: 0.386
[11]; first compound 0.1 µM
  relative viability: 0.479
[11]; first compound 0.3162 µM
  relative viability: 0.381
[11]; first compound 1 µM
  relative viability: 0.258
[12]; first compound 0.01 µM
  relative viability: 0.998
[12]; first compound 0.03162 µM
  relative viability: 0.92
[12]; first compound 0.1 µM
  relative viability: 0.93
[12]; first compound 0.3162 µM
  relative viability: 1.03
[12]; first compound 1 µM
  relative viability: 0.915
[13]; first compound 0.01 µM
  relative viability: 0.307
[13]; first compound 0.03162 µM
  relative viability: 0.334
[13]; first compound 0.1 µM
  relative viability: 0.406
[13]; first compound 0.3162 µM
  relative viability: 0.425
[13]; first compound 1 µM
  relative viability: 0.348
[14]; first compound 0.01 µM
  relative viability: 0.551
[14]; first compound 0.03162 µM
  relative viability: 0.661
[14]; first compound 0.1 µM
  relative viability: 0.595
[14]; first compound 0.3162 µM
  relative viability: 0.553
[14]; first compound 1 µM
  relative viability: 0.443
[15]; first compound 0.01 µM
  relative viability: 0.772
[15]; first compound 0.03162 µM
  relative viability: 0.656
[15]; first compound 0.1 µM
  relative viability: 0.611
[15]; first compound 0.3162 µM
  relative viability: 0.89
[15]; first compound 1 µM
  relative viability: 0.655
[16]; first compound 0.01 µM
  relative viability: 0.693
[16]; first compound 0.03162 µM
  relative viability: 0.706
[16]; first compound 0.1 µM
  relative viability: 0.624
[16]; first compound 0.3162 µM
  relative viability: 0.466
[16]; first compound 1 µM
  relative viability: 0.275
[17]; first compound 0.01 µM
  relative viability: 0.769
[17]; first compound 0.03162 µM
  relative viability: 0.874
[17]; first compound 0.1 µM
  relative viability: 0.792
[17]; first compound 0.3162 µM
  relative viability: 0.676
[17]; first compound 1 µM
  relative viability: 0.386
[18]; first compound 0.01 µM
  relative viability: 0.311
[18]; first compound 0.03162 µM
  relative viability: 0.258
[18]; first compound 0.1 µM
  relative viability: 0.417
[18]; first compound 0.3162 µM
  relative viability: 0.382
[18]; first compound 1 µM
  relative viability: 0.395
[19]; first compound 0.01 µM
  relative viability: 0.695
[19]; first compound 0.03162 µM
  relative viability: 0.639
[19]; first compound 0.1 µM
  relative viability: 0.528
[19]; first compound 0.3162 µM
  relative viability: 0.671
[19]; first compound 1 µM
  relative viability: 0.526
[20]; first compound 0.01 µM
  relative viability: 0.63
[20]; first compound 0.03162 µM
  relative viability: 0.636
[20]; first compound 0.1 µM
  relative viability: 0.634
[20]; first compound 0.3162 µM
  relative viability: 0.529
[20]; first compound 1 µM
  relative viability: 0.425
